Results: patent US20230098111A1, “COMPOSITIONS AND METHODS TO TREAT NEUROLOGICAL DISEASES” (University of Southern California, priority 2020, published 2023)

Tests used:
TDP-43 = test: Nuclear:cytoplasmic TDP-43 in sporadic ALS iMNs; assay type: cell-based, human; details: DMSO or apilimod
[1] = tested on: Drosophila larvae expressing GR dipeptide repeats; test: NMJ degeneration in poly(GR) Drosophila ALS model; assay type: in vivo
Protocol: Apilimod (30 μM) was fed to control and larvae expressing 100× (A,C) or 36× (B,D) GR dipeptide repeats. […] Unpaired t-test. **p<0.01, ***p<0.001.
Testing the efficacy of PIKFYVE suppression in vivo. The fruit fly Drosophila is a powerful genetic system for studying the effects of ALS gene products on neuromuscular junction (NMJ) function. […] It was shown that overexpression of wild-type or mutant TDP-43, SOD1, or the C9ORF72 repeat expansion in Drosophila larvae causes neurodegeneration and an increase in the time required for larvae to right themselves after being turned on their dorsal side, reflecting a decrease in motor function (FIG. 30A-C). […] Overexpression of the C9ORF72 DPR poly(GR)(36 or 100 repeats) causes a dramatic reduction in synaptic arborization, active zone number, and synaptic strength at NMJs (FIG. 31A-D).

[2] = apilimod 30 μM fed to larvae expressing poly(GR)
[3] = apilimod 30 μM fed to larvae expressing poly(GR), listed as Apilimod

Q: Which “nuclear localization of TDP-43 in sporadic ALS iMNs” value (TDP-43) does the source give for Cc1cccc(/C=N/Nc2cc(N3CCOCC3)nc(OCCc3ccccn3)n2)c1 [apilimod] here?
A: rescued the nuclear localization of TDP-43

Q: And the NMJ degeneration ([1]; apilimod 30 μM)?
A: suppresses NMJ degeneration

Q: What about the NMJ boutons [1, 2] of the same compound?
A: More active zones and NMJ boutons

Q: What about the “number of active zones at NMJ” value [1, 2] of the same compound?
A: More active zones

Q: What about the “synaptic strength (EPSP amplitude)” value [1, 2] of the same compound?
A: enhanced synaptic strength

Q: And the “number of active zones at NMJ” value [1, 3]?
A: partially rescues

Q: What about the “synaptic strength (EPSP amplitude)” value [1, 3] of the same compound?
A: partially rescues
